The target of this test is T1, Aurora A (Homo sapiens, UniProt O14965).
T1 construct: gene AURKA
T1 sequence (O14965 1-403): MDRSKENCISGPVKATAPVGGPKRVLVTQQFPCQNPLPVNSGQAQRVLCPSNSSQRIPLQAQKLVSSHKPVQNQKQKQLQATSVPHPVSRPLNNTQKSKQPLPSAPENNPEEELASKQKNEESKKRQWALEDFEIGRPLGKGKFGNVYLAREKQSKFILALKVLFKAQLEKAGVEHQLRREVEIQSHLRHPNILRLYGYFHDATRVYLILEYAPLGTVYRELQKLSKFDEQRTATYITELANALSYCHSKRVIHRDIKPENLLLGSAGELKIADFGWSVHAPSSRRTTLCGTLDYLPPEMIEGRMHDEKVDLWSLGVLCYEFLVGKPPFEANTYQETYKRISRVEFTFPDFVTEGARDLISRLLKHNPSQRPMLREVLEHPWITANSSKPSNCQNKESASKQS
The test is described as follows: microfluidic mobility shift kinase assay; also cellular thermal shift assay (Aurora A levels reduced with GNA at […]°C). Format: biochemical.

The structures appear in SMILES notation.

Usually IC50 stands for the concentration that inhibits the measured activity by half. `CC(C)=CCC/C(C)=C/Cc1c(O)c(CC=C(C)C)c2c(c1O)C(=O)C1=C[C@@H]3C[C@H]4C(C)(C)O[C@@](C/C=C(/C)C(=O)O)(C3=O)[C@@]14O2` [GNA, gambogenic acid]: the concentration for half-maximal inhibition (IC50) came out at 1420 nM.

For the origin of these results see PMC8526855, “Gambogenic Acid Induces Endoplasmic Reticulum Stress in Colorectal Cancer via the Aurora A Pathway” (Frontiers in Cell and Developmental Biology, 2021).
